Data published in ChEMBL document CHEMBL4270509, “Targeting Wnt-driven cancers: Discovery of novel tankyrase inhibitors” (Eur J Med Chem, 2017).
Values belong to the compound of their own block, whether it stands above or below them.

Legend:
[1] = Inhibition of Wnt/beta-catenin pathway (unknown origin) expressed in HEK293 cells by Wnt-responsive super-topflash luciferase reporter assay; type: cell-based; conditions: Homo sapiens
[2] = test system: MCF7; test: Growth inhibition of human MCF7 cells incubated for 24 hrs by MTT assay; type: functional, cell-based; conditions: MCF7, 24 h
[3] = target: T1, Poly [ADP-ribose] polymerase tankyrase-1 (Homo sapiens) (UniProt O95271); test: Inhibition of TNKS1 (unknown origin) at 0.5 uM by colorimetric method
T1 sequence (whole entry): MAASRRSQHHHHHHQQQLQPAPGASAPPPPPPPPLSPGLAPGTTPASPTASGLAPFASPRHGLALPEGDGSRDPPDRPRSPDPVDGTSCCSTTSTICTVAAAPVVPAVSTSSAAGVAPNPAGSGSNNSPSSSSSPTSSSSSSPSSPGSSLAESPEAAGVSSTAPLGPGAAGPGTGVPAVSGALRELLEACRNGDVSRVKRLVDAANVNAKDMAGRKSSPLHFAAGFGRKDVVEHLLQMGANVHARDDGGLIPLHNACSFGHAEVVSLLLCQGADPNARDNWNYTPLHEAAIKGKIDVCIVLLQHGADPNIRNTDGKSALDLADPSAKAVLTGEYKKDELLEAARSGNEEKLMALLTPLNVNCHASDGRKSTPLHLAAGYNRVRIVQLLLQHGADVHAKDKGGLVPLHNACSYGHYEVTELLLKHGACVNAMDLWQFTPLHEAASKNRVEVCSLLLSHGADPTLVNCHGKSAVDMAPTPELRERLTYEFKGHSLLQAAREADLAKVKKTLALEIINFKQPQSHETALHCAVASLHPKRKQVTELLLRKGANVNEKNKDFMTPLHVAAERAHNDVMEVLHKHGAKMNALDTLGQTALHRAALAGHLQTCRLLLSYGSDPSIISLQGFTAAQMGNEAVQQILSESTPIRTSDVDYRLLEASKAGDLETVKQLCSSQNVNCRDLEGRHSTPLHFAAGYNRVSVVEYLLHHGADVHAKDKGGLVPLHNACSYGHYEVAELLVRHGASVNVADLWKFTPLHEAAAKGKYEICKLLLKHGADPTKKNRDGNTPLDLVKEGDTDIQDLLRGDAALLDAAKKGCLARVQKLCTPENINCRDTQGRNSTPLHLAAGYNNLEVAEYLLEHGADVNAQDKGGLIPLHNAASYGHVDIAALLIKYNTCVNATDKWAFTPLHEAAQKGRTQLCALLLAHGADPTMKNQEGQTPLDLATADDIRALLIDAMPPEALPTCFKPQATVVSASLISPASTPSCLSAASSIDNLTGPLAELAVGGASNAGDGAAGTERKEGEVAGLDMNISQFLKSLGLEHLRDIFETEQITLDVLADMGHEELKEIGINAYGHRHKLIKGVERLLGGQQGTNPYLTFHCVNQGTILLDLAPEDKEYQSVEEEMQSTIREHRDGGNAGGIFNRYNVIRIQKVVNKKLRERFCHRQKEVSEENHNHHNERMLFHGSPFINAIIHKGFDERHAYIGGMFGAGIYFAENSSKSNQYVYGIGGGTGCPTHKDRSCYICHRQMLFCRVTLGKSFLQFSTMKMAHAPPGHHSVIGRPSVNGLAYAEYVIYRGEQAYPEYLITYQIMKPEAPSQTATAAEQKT

[4] = target: T2, Poly [ADP-ribose] polymerase tankyrase-1 (Homo sapiens, UniProt O95271)
T2 sequence (O95271 whole entry): T1 sequence (whole entry)
Description: Inhibition of human TNKS1 (1030 to 1317 residues) by fluorescence based activity assay

[5] = test system: SW480; test: Antitumor activity against human SW480 cells xenografted in CB17/SCID mouse assessed as inhibition of tumor growth at 150 to 300 mg/kg after 3 weeks; type: functional
[6] = target: T2, Poly [ADP-ribose] polymerase tankyrase-1; test: Inhibition of TNKS1 (unknown origin)

EC50 [1]: 180 to 2000 nM
SMILES: N#Cc1ccccc1Cn1c(=O)n(CC2CCC(C(=O)NCc3ccccc3)CC2)c(=O)c2ccccc21 (centres undefined)

IC50 [2]: 5000 nM | inhibition [3]: 60%
SMILES: Cc1c(Cl)cccc1NC(CC(=O)c1ccccc1)C(=O)OCC(=O)c1ccc([N+](=O)[O-])cc1 (centres undefined)

EC50 [1]: 180 to 2000 nM
SMILES: Cc1cccc2nc(Cn3c(=O)n(CC4CCC(C(=O)NCc5ccccc5)CC4)c(=O)c4ccccc43)cc(=O)n12 (centres undefined)

EC50 [1]: 180 to 2000 nM
SMILES: O=C(Nc1cccc2cccnc12)c1ccc(C2C(=O)[C@@H]3[C@H](C2=O)[C@@H]2C=C[C@H]3C2)cc1 (some centres undefined)

IC50 [4]: 5 nM
SMILES: CC(C)(C)c1ccc(-c2nc3ccccc3c(=O)[nH]2)cc1

EC50 [1]: 180 to 2000 nM
SMILES: O=C(NC1CCCC1)c1ccc(Cn2c(=O)c3ccccc3n(Cc3cc(=O)n4ccccc4n3)c2=O)cc1

SMILES: COc1ccc(-n2c(SCc3nc(-c4ccc(C)cc4)no3)nnc2-c2ccncc2)cc1
TGI [5]: 30%

IC50 [6]: 11000 nM
SMILES: Cn1c(-c2ccc(Cl)cc2Cl)nc(=O)c2cccnc21
